# Reference: patent US10196671B2, “Assay method for the detection of viable microbial cells in a sample” (3M INNOVATIVE PROPERTIES COMPANY, priority 2006, dated 2019)
# Legend:
# apyrase [1] = molecular target: T1, apyrase (Solanum tuberosum, UniProt P80595)
# Protocol: (§1) 1. Leuconostoc sp MD 110 was grown by streaking a bead onto de Man Rogosa Sharpe agar to revive bead for stock (place in 30° C. incubator overnight).
# a. A loop was taken from this plate and transferred to 10 ml Tryptone Soya Broth and grown at 30° C. for exactly 40 hours.
# b. […] Cells were washed twice in ice-cold Reverse Osmosis water in centrifuge (4500 rpm for 10 mins), resuspended in 10 ml cold Reverse Osmosis water and stored in the fridge. c. Cells for the experiment were prepared using a 100× dilution of this stock with a sterile solution of glucose (10 g/l) and MgCl2 (5 mM) at room temperature. Cells were diluted into this solution at least 20 minutes prior to starting each experiment to allow adaptation to the new conditions.
# d. A luciferase/luciferin reagent formulated with a detergent-resistant luciferase (Promega, Ultraglo) (Liquid Lysate) enzyme was reconstituted in 17.5 ml phosphate buffer pH 7.75.
# (§2) 2. 1 ml of the above cell suspension was added to a cuvette.
# 3. The suspension was then treated with 1 ml of reconstituted apyrase 0.96 units per ml, and […] of ATP (10^−7M) was added and left for 15 minutes at room temperature.
# (§3) 4. Two 100 μl aliquots of the treated suspension was transferred to clean cuvettes.
# 5. 100 μl of the luciferase/luciferin reagent formulated with a detergent-resistant luciferase (Promega, Ultraglo)/phosphate luciferase was added to each of the cuvettes.
# 6. To the remaining 2 cuvettes 100 μl of a solution of long chain fatty acid ethoxylates (the extractant) was added and a timer started.
# 7. Cuvette 1 was read in a luminometer after 5 minutes extraction time.
# 8. Cuvette 1 was removed from the luminometer and 10 μl of 10^−7M ATP was added to standardise.
# 9. The sample was returned to the luminometer and read again, then read 5 consecutive times in a row in order to determine the final kinetics of the reaction.
# 10. After a further five minutes steps 9-11 were repeated for cuvette 2.
# 11. For the control steps 4 to 13 were repeated but using a luciferase/luciferin reagent formulated with a detergent-resistant luciferase (Promega, Ultraglo) reconstituted in 25 mM HEPES buffer pH 7.75.
# apyrase [2] = molecular target: T1, apyrase; remark: listed apart in the source
# Protocol: as §1
# 1.1 A loop was taken from this plate and transferred to 10 ml Tryptone Soya Broth and grown at 30° C. for exactly 40 hours.
# Cells were washed twice in ice-cold RO water in centrifuge (4500 rpm for 10 mins), resuspended in 10 ml cold Reverse Osmosis water and stored in the fridge.
# (§4) 1.3. Cells for the experiment were prepared using a 100× dilution of this stock with a sterile solution of glucose (10 g/l) and MgCl2 (5 mM) at room temperature. Cells were diluted into this solution at least 20 minutes prior to starting each experiment to allow adaptation to the new conditions.
# 1 ml of the above cell suspension was added to a cuvette.
# 2. The suspension was then treated with 1 ml of reconstituted apyrase 0.96 units per ml, and 10 μl of ATP (10^−7M) was added and left for 15 minutes at room temperature.
# 3. 2×100 μl aliquots of the treated suspension were added to clean cuvettes.
# 4. To these 2 cuvettes 20 μl of 100 μM pH 7.75 phosphate solution was added.
# 5. 100 μl of the extractant (a solution of long chain fatty acid ethoxylates) was added and a timer started.
# (§5) 6. After 5 minutes extraction time Cuvette 1 was read in a luminometer.
# (§6) 7. Cuvette 1 was removed from the luminometer and 10 μl of 10^−7M ATP was added to standardise.
# (§7) 8. The sample was returned to the luminometer and read again, then read 5 consecutive times in a row in order to determine the final kinetics of the reaction.
# (§8) 9. After a further five minutes the second water cuvette was read in a luminometer.
# (§9) 10. Steps 7-11 were repeated for cuvette 2.
# 11. For the control, steps 4 to 13 were repeated but using 20 μl of Reverse Osmosis water in place of 20 μl phosphate.
# apyrase [3] = molecular target: T1, apyrase; remark: listed apart in the source
# Protocol: as §1
# 1.1. A loop was taken from this plate and transferred to 10 ml Tryptone Soya Broth and grown at 30° C. for exactly 40 hours.
# Cells were washed twice in ice-cold Reverse Osmosis water in centrifuge (4500 rpm for 10 mins), resuspended in 10 ml cold Reverse Osmosis water and stored in the fridge.
# as §4
# A special luciferase/luciferin reagent formulated with a detergent-resistant luciferase (Promega, Ultraglo) enzyme was prepared. This was reconstituted in 17.5 ml of 30 mM phosphate /10 g/l a solution of long chain fatty acid ethoxylates.
# as §2
# 3. The suspension was then treated with 1 ml of reconstituted apyrase 0.96 units per ml, and 10 μl of ATP (10^−7M) was added and left for 15 minutes at room temperature.
# as §3
# 5. To these two cuvettes 100 μl of the luciferase/luciferin reagent formulated with a detergent-resistant luciferase (Promega, Ultraglo) Ultraglo/phosphate/solution of long chain fatty acid ethoxylates was added.
# as §5, §6, §7, §8, §9
# 11. For the control, steps 4 to 13 were repeated but using a luciferase/luciferin reagent formulated with a detergent-resistant luciferase (Promega, Ultraglo) made by reconstituting in 25 mM HEPES buffer pH 7.75 with a solution of long chain fatty acid ethoxylates (10 g/l).
# apyrase [4] = molecular target: T1, apyrase; remark: listed apart in the source
# Protocol: A loop was taken from this plate and transferred to 10 ml Tryptone Soya Broth and grown at 30° C. for exactly 40 hours.
# 1.3. […] Cells were washed twice in ice-cold Reverse Osmosis water in centrifuge (4500 rpm for 10 mins), resuspended in 10 ml cold Reverse Osmosis water and stored in the fridge.
# Cells for the experiment were prepared using a 100× dilution of this stock with a sterile solution of glucose (10 g/l) and MgCl2 (5 mM) at room temperature. Cells were diluted into this solution at least 20 minutes prior to starting each experiment to allow adaptation to the new conditions.
# as §2
# T1 sequence (P80595 whole entry, species assumed): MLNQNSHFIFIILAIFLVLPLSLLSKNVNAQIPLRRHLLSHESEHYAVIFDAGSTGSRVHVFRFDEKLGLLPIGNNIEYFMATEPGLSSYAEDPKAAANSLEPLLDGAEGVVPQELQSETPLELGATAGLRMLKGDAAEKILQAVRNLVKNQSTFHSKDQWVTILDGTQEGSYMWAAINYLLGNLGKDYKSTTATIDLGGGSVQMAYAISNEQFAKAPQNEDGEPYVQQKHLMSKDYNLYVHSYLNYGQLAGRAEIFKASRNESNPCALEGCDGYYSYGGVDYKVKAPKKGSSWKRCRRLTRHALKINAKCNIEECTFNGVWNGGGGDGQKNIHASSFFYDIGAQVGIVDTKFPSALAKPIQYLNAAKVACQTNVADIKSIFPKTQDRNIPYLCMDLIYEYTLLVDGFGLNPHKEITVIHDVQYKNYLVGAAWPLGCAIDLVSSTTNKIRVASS
substance,measurement,setting,value
phosphate,"drop of assay signal (kinetics, FIG. 2.3)","apyrase [1]; in 50 seconds after ATP standard, phosphate buffer pH 7.75",10%
same,RLU produced after 5 minutes extraction still remaining at T=10 minutes,apyrase [1]; luciferase reagent reconstituted in phosphate buffer pH 7.75,73.7%
same,amount of ATP at T=10 as percentage of that present at T=5,apyrase [1]; phosphate buffer pH 7.75,81.3%
same,amount of ATP at T=5,"apyrase [1]; phosphate buffer pH 7.75, T=5 minutes",0.035 picomoles
same,amount of ATP remaining at T=10,"apyrase [1]; phosphate buffer pH 7.75, T=10 minutes",0.029 picomoles
same,"inhibition of apyrase, ATP broken down in 5 minutes (FIG. 4.2)",apyrase [2]; 20 μl of 100 μM pH 7.75 phosphate solution,does inhibit apyrase
same,RLU produced after 5 minutes extraction remaining 5 minutes later,apyrase [2]; 20 μl of 100 μM pH 7.75 phosphate solution added before extractant,100%
same,"level of ATP present in the assay, T-5 to T-10","apyrase [2]; 20 μl of 100 μM pH 7.75 phosphate solution, patent believes it an artifact of the calculation",increased
same,drop of RLU values (kinetics),"apyrase [2]; in 46 seconds, 20 μl of 100 μM pH 7.75 phosphate solution","around 1,400 RLU"
same,amount of ATP per assay higher at T=10 than at T=5,apyrase [3]; 30 mM phosphate in luciferase/extractant reagent,42%
same,amount of ATP per assay at T=5,"apyrase [3]; 30 mM phosphate in luciferase/extractant reagent, T=5",0.0052 picomoles
same,amount of ATP per assay at T=10,"apyrase [3]; 30 mM phosphate in luciferase/extractant reagent, T=10",0.0074 picomoles
same,increase of RLU values (kinetics),"apyrase [3]; in 75 seconds, 30 mM phosphate in luciferase/extractant reagent",13%
same,RLU signal higher at T=10 than at T=5,apyrase [3]; luciferase reagent in 30 mM phosphate / 10 g/l long chain fatty acid ethoxylates,57%
same,rise in RLU from T-5 to T-10,"apyrase [4]; 30 mM phosphate mixed with the extractant, after 15 min apyrase 0.96 units per ml, Leuconostoc sp MD 110 suspension",38%
same,"inhibition of apyrase (kinetics, FIG. 1.3)","apyrase [4]; 30 mM phosphate, ATP standard added, consecutive luminometer reads",inhibits the action of apyrase
